Earlier results as cited in US8808745B2 (Egalet Ltd., priority 2001, dated 2014).

Settings: single dose of 10 mg oral morphine, plain tablet composition

Q: With CN1CC[C@]23c4c5ccc(O)c4O[C@H]2[C@@H](O)C=C[C@H]3[C@H]1C5 [morphine] as the compound, how does the “average duration of action” value read?
A: 4 to 5 h
